Columns and labels:
[1] = target: RAC-alpha serine/threonine-protein kinase (Homo sapiens) (UniProt P31749); assay: Inhibition of human AKT1 catalytic domain expressed in baculovirus assessed as substrate phosphorylation using fluorescence-labelled peptides as substrate at 95 uM after 90 mins by microfluidic peptide phosphorylation assay
[2] = target: T1, Interleukin-1 receptor-associated kinase 4 (Homo sapiens) (UniProt Q9NWZ3); assay: Inhibition of human IRAK4 catalytic domain expressed in baculovirus assessed as substrate phosphorylation using fluorescence-labelled peptides as substrate at 0.2 uM after 90 mins by microfluidic peptide phosphorylation assay
T1 sequence (whole entry): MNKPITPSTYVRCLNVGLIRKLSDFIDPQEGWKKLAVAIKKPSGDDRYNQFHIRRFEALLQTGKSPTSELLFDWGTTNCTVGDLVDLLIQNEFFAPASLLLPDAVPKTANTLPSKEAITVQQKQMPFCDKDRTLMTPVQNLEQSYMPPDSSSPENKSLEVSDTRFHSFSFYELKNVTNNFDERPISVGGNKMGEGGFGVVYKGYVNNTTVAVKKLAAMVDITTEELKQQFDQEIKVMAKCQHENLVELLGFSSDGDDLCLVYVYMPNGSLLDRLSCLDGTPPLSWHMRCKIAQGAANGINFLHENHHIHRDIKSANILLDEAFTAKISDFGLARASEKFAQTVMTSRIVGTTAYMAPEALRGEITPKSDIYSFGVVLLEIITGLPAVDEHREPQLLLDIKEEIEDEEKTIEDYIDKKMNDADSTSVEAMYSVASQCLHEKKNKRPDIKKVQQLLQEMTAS

[3] = target: Dual specificity tyrosine-phosphorylation-regulated kinase 1A (Rattus norvegicus) (UniProt Q63470); assay: Inhibition of rat full length DYRK1a expressed in Escherichia coli cell assessed as substrate phosphorylation using fluorescence-labelled peptides as substrate at 8 uM after 90 mins by microfluidic peptide phosphorylation assay
[4] = target: Tyrosine-protein kinase Fyn (Homo sapiens) (UniProt P06241); assay: Inhibition of human full length FYN expressed in baculovirus assessed as substrate phosphorylation using fluorescence-labelled peptides as substrate at 2 uM after 90 mins by microfluidic peptide phosphorylation assay
Tyrosine-protein kinase Fyn (Homo sapiens), sequence (P06241 2-537 limits assumed): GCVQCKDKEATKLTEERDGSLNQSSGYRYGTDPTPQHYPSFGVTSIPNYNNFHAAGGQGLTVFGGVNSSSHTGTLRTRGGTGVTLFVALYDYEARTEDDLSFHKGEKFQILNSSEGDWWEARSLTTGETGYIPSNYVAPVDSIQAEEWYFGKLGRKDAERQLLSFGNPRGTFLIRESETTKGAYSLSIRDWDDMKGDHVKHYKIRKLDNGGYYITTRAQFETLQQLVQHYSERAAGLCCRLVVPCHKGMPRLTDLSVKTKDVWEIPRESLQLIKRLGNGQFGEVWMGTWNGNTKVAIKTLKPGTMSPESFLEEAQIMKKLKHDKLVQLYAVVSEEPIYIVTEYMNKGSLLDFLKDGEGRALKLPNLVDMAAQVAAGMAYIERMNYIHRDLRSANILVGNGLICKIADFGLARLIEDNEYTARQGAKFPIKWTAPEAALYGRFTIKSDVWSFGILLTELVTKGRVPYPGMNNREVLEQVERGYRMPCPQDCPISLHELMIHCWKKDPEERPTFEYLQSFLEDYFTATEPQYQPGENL

[5] = target: T2, Serine/threonine-protein kinase D1 (Homo sapiens) (UniProt Q15139); assay: Inhibition of human full length PKD1 expressed in baculovirus assessed as substrate phosphorylation using fluorescence-labelled peptides as substrate at 2 uM after 90 mins by microfluidic peptide phosphorylation assay
T2 sequence (whole entry): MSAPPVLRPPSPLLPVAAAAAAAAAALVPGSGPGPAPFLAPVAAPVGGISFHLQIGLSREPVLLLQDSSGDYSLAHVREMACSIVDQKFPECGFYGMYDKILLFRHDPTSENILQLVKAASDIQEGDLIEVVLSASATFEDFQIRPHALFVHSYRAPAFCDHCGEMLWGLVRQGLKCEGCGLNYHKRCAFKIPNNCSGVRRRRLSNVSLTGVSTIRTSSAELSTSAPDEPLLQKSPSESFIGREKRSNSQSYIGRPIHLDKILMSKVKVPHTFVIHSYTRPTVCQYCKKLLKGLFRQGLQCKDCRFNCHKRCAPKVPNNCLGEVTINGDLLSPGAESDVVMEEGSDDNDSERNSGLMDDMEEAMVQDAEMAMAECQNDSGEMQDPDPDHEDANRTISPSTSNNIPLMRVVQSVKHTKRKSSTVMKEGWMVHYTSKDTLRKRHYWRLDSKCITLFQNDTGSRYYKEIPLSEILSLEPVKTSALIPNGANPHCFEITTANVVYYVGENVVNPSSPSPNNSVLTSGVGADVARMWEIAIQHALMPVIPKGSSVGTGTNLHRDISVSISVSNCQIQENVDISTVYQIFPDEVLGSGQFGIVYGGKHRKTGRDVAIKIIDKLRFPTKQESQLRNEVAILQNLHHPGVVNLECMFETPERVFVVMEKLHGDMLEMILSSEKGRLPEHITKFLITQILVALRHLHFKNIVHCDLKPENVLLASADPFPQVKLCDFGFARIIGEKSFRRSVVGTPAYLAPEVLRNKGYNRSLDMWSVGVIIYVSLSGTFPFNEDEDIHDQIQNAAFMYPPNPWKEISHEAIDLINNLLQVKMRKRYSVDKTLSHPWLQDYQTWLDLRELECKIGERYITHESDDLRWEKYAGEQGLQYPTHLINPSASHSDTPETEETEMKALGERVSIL

[6] = target: Insulin-like growth factor 1 receptor (Homo sapiens) (UniProt P08069); assay: Inhibition of human IGF1R catalytic domain expressed in baculovirus assessed as substrate phosphorylation using fluorescence-labelled peptides as substrate at 2 uM after 90 mins by microfluidic peptide phosphorylation assay
[7] = target: T3, Serine/threonine-protein kinase Sgk3 (Homo sapiens) (UniProt Q96BR1); assay: Inhibition of human full length SGK3 expressed in baculovirus assessed as substrate phosphorylation using fluorescence-labelled peptides as substrate at 0.06 uM after 90 mins by microfluidic peptide phosphorylation assay
T3 sequence (whole entry): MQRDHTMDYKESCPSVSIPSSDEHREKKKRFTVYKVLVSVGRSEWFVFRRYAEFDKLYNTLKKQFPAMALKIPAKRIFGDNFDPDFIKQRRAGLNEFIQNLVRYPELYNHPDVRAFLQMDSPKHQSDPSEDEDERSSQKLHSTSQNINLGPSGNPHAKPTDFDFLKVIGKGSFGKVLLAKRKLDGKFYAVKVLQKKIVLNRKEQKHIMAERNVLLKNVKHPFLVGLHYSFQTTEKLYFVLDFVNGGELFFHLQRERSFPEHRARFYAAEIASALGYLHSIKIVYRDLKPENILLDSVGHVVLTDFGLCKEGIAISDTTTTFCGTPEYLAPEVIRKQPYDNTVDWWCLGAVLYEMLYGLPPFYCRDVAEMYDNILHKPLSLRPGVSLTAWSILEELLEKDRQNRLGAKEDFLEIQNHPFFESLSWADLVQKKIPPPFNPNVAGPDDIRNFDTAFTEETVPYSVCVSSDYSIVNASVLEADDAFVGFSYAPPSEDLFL

[8] = target: Tyrosine-protein kinase ABL1 (Homo sapiens) (UniProt P00519); conditions: 0.1 uM
Tyrosine-protein kinase ABL1 (Homo sapiens), sequence (P00519 whole entry): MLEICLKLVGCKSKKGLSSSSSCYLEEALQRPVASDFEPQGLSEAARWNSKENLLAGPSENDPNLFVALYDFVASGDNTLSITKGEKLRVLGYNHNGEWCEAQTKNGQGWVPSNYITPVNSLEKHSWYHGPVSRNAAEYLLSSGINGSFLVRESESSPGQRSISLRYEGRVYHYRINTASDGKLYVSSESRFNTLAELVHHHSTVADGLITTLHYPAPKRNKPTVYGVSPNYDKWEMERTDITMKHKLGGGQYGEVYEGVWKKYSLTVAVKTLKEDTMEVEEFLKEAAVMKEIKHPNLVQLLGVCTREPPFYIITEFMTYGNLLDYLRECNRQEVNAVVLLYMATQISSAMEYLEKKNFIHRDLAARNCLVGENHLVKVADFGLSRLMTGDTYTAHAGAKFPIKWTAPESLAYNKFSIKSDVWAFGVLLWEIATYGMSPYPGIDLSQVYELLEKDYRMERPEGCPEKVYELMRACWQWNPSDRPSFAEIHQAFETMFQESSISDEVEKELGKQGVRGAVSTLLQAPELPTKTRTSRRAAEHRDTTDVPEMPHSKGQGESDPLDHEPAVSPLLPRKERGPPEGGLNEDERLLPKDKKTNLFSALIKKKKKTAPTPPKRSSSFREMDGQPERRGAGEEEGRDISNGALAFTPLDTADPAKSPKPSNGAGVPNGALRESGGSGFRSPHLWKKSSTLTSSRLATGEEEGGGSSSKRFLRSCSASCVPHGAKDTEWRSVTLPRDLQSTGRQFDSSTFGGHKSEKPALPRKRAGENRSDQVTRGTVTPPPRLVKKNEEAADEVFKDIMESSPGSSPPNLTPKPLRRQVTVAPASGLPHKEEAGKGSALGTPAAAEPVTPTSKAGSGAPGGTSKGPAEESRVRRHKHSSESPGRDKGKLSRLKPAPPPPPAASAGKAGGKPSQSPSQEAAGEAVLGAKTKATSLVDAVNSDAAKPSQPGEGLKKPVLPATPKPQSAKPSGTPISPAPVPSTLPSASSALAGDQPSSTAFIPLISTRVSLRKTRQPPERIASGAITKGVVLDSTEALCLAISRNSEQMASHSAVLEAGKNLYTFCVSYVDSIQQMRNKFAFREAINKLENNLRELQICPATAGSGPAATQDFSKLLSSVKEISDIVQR
Description: Inhibition of human full-length ABL expressed in baculovirus assessed as substrate phosphorylation using fluorescence-labelled peptides as substrate at 0.1 uM after 90 mins by microfluidic peptide phosphorylation assay

RAC-alpha serine/threonine-protein kinase (Homo sapiens), sequence (P31749 whole entry, the tested form may be a part): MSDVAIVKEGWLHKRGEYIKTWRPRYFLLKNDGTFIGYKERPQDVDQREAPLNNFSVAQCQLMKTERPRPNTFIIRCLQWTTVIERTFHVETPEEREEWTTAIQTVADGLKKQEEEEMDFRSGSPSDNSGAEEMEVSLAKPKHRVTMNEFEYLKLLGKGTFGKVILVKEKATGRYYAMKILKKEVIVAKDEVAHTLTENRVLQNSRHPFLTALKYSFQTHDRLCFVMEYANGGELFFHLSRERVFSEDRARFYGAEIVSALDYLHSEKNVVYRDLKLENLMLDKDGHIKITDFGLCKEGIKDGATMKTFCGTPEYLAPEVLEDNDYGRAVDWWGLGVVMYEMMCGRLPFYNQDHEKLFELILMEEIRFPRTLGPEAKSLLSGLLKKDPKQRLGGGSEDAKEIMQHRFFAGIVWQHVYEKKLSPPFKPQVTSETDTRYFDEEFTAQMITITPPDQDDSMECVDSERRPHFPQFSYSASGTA

SMILES: NCCc1ccc(-c2ncnc3[nH]cnc23)cc1
- inhibition [1]: 81%

SMILES: Clc1ccc(C2(c3ccc(-c4ncnc5[nH]cnc45)cc3)CCNCC2)cc1
- inhibition [2]: 13%

SMILES: NCC1CCN(c2ncnc3[nH]ccc23)CC1
- inhibition [3]: 54%

SMILES: NC1CCN(c2ncnc3[nH]ccc23)CC1
- inhibition [4]: 5%
- inhibition [5]: 26%
- inhibition [6]: 0%

SMILES: NC1(Cc2ccc(Cl)cc2)CCN(c2ncnc3[nH]ccc23)CC1
- inhibition [7]: 42.5%

SMILES: C[C@H](CN(C)C)Oc1nc(Nc2cc3cccc(Cl)c3cn2)cnc1C#N
- inhibition [8]: 0%
